4 compounds from US9394539B1, “Survival motor neuron gene (SMN2) mRNA constructs for post-transcription regulation” (PTC Therapeutics, Inc., priority 2007, dated 2016) can be followed below.

SMILES strings stand for the structures.

For data set [1], the system named is 5′-UTR and 3′-UTR of the target SMN2 mRNA. In words: Luciferase reporter gene screening assay in stable 293H cells (fLuc flanked by SMN2 5′-UTR and 3′-UTR). It counts as cell-based, human. To be noted: 7.5 μM test concentration, 24 hours, vs negative control (0.5% DMSO). The procedure: Stable 293H cell lines containing the firefly luciferase (fLuc) gene flanked by one of SMN1 or SMN2 5′-UTR and 3′-UTR were cultured in DMEM medium supplemented with 10% FBS and 200 ug/mL hygromycin in Fisher T175 flasks. The cells were passaged every 4 days at 1:10 dilution. Cultures are kept in a 37° C. and 5% CO2 incubator. The cells were scaled-up over a three day period before performing the assay. Two confluent T175 flasks were split into twenty T175 flasks (1:10 dilution). Cells were harvested from each confluent flask by removing all of the media and adding 4 mL of warmed trypsin to dislodge the cells. After the cells were dislodged, 16 mL of selective media was added for a final volume of 20 mL. The cells were expanded by adding 2 mL of the harvested cells into ten new T175 flasks plus 25 ml, of selective media. The twenty new flasks are placed into the 37° C., 5% CO2 incubator. On the day the assay was performed, the media was removed from the flasks and 3 mL of warmed trypsin was added to dislodge the cells. After the cells were dislodged, 10 mL of nonselective media was to the flask. This was repeated for all twenty flasks and combined into one flask. 100 μL of the above cell culture plus 100 μL of Trypan Blue stain was counted on a hemocytometer. Cells were plated in the presence of 2 μL of a compound to be tested (at final concentration of 7.5 μM with 0.5% DMSO).
The firefly luciferase substrate used was Luc Lite Plus Packard #6016969. Luciferase activity was immediately assayed using a ViewLux Imaging system (Perkin Elmer).
The screening assay was performed by preparing a plates containing test compounds and controls, including wells that contained only vehicle or a high inhibitor concentration and wells that provided an 8-point dose response curve of puromycin, a non-specific standard control inhibitor. The cells were grown overnight in the presence of compounds or controls at 37° C. in 5% CO2. […] After 24 hours, the amount of luminescence was determined using a ViewLux Imaging system (Perkin Elmer). […]

The nature of data set [2]: CellTiter-Glo cytotoxicity assay, MC-IXC cells. To be noted: human, MC-IXC neuroblastoma cells, CellTiter-Glo (ATP). Format: cell-based. As to the method: (§1) To evaluate cytotoxicity of the compounds in the neuroblastoma MC-IXC cell line, the CellTiter-Glo assay (Promega) was utilized. CellTiter-Glo determines the number of viable cells in culture based on quantification of the ATP present, which signals the presence of metabolically active cells. A reduction in cellular ATP is indicative of a cytotoxic or cytostatic effect. The compounds are tested in a 7-point dose response from 30 μM to 0.38 μM. Doxorubicin, a known cytotoxic compound, are used to address the sensitivity of the tested cell line. For relatively sensitive cell lines, such as U937 (a human monocyte cell line), the CC50 of doxorubicin ranges from 4 to 10 nM.
For orientation: ATP-based viability assays read luminescence as a measure of living cells.

Data set [3] is described as follows: CellTiter-Glo cytotoxicity assay, U937 cells. Format: cell-based. The settings on record: human, U937 monocyte cells, relatively sensitive cell line. As to the method:
as §1

Data set [4] is described as follows: CellTiter-Glo cytotoxicity assay, Huh7 cells. It counts as cell-based. The settings on record: human, Huh7 hepatoblastoma cells, intermediate level of sensitivity.

`c1ccc(-n2ncc3c(NC4CCCCC4)ncnc32)cc1` [Cpd 4, N-cyclohexyl-1-phenyl-1H-pyrazolo[3,4-d]pyrimidin-4-amine]: in data set [1], the “Ratio (fold increase in target mRNA (SMN2) compared to negative control)” value was “** (two stars (**) represent active compounds with a fold increase ratio in a range greater than 1.6 up to 1.8)”.

As for `COc1cccc2c1C(=O)c1c(O)c3c(c(O)c1C2=O)C[C@@](O)(C(=O)CO)C[C@@H]3O[C@H]1C[C@H](N)[C@H](O)[C@H](C)O1` [doxorubicin], the CC50 in data set [2] was 12 nM; in data set [3] it was 4 to 10 nM; in data set [4], 70 to 300 nM.

Turning to `CC(C)(C)C(C)(O)C#Cc1ccccc1` (stereo not drawn) [Cpd 2, 3,4,4-trimethyl-1-phenylpent-1-yn-3-ol], the “Ratio (fold increase in target mRNA (SMN2) compared to negative control)” value in data set [1] is “** (two stars (**) represent active compounds with a fold increase ratio in a range greater than 1.6 up to 1.8)”.

In the case of `Cc1ccc2nc(-c3ccc(/N=C/c4ccc(Br)s4)cc3)sc2c1` [Cpd 1, (E)-N-((5-bromothiophen-2-yl)methylene)-4-(6-methylbenzo[d]thiazol-2-yl)aniline], the “Ratio (fold increase in target mRNA (SMN2) compared to negative control)” value in data set [1] is on record as “* (one star (*) represents active compounds with a fold increase ratio in a range greater than 1.3 up to 1.6)”.

In general, CC50 refers to the concentration giving 50% cytotoxicity. A lower CC50 goes with greater toxicity to the cells.
